# Structures can show the parent of a compound that is named as a salt. Where two headings read alike, the source gives them in different places.
# What was measured:
# [1] = solubility of the powder in water
# [2] = bupropion and its metabolites; cited from earlier work
# [3] = pharmacokinetics in moderate renal impairment
# Text: (§1) Data are GMRs and 90% CIs. References used are the matched healthy subjects for renal and hepatic impairment studies, and extensive or ultra-extensive CYP2D6 metabolizers respectively.
# [4] = pharmacokinetics in moderate hepatic impairment; assay type: in vivo, human; settings: for AUC0-12 and Cmax in moderate hepatic impairment compared with healthy patients: Group 2; for AUC Change Relative to Reference (90% CI); mean ratio of AUC0-12 / Cmax Change Relative to Reference (90% CI); mean ratio of Cmax: Moderate Hepatic Impairment (Group 2), GMR vs matched healthy subjects, after 8 days of twice daily dosing, hydrobromide monohydrate
# [5] = effect of food on pharmacokinetics of the subject combination
# [6] = pharmacokinetics in CYP2D6 poor metabolizers
# Text: Approximately 7% to 10% of Caucasians and 3% to 8% of African Americans lack the capacity to metabolize CYP2D6 substrates and are classified as poor metabolizers.
# as §1
# [7] = pharmacokinetics of the subject combination at steady state; settings: co-administered with bupropion
# [8] = co-administration with strong CYP2D6 inhibitor (paroxetine)
# [9] = tested on: patients with treatment-resistant depression or MDD; settings: cited from earlier work
# [10] = tested on: patients with treatment-resistant depression or MDD; settings: cited from earlier work; remark: listed apart in the source
# [11] = 3 poor metabolizers, subject combination
# [12] = 7 subjects with moderate (GFR 30-60 mL/min) renal impairment vs 6 matched controls
# [13] = patients having moderate renal impairment, tablets of Example 4
# [14] = 20 mg of paroxetine, tablet of Example 4 twice daily, vs tablet twice daily without paroxetine
# [15] = flexible-dose study, patients ≥65 years with treatment-resistant depression, 28 to 84 mg + oral AD, N = 72
smiles,measurement,setting,value
"CC(NC(C)(C)C)C(=O)c1cccc(Cl)c1.Cl (racemic) [bupropion, (±)-1-(3-chlorophenyl)-2-[(1,1-dimethylethyl)amino]-1-propanone hydrochloride]",solubility in water,[1],highly soluble in water
same,presence in human milk,[2],presence of bupropion and its metabolites in human milk
same,increase in AUC0-12 in moderate renal impairment,"[3]; human, in vivo",1.80 fold
same,increase in Cmax in moderate renal impairment,"[3]; human, in vivo",1.87 fold
same,increase of exposure in moderate renal impairment vs matched controls with normal renal function,"[3]; human, in vivo",approximately 2 fold
same,reduction of clearance in moderate renal impairment vs matched controls,"[3]; human, in vivo",50%
same,AUC0-12 and Cmax in moderate hepatic impairment compared with healthy patients,[4],not significantly different
"COc1ccc2c(c1)[C@]13CCCC[C@@H]1[C@H](C2)N(C)CC3 [dextromethorphan, morphinan, 3-methoxy-17-methyl-, (9α, 13α, 14α), hydrobromide monohydrate]",decrease of AUC0-12 when administered with food,[5],14%
same,increase in AUC0-12 in poor metabolizers compared to extensive metabolizers,[6]; [11],~3.4 fold
same,increase in Cmax in poor metabolizers compared to extensive metabolizers,[6]; [11],~3 fold
same,steady state plasma concentrations in poor metabolizers vs non-poor metabolizers,[6]; 12 poor metabolizers treated with the subject combination in efficacy trials,generally higher than exposures for non-poor metabolizers
same,plasma concentrations in CYP2D6 poor metabolizers compared to patients who are not CYP2D6 poor metabolizers,[6]; subject composition,increases plasma concentrations of dextromethorphan
same,dose proportionality of changes in AUC and Cmax at steady state,[7]; varying doses of bupropion (75 to 150 mg),less than dose-proportional changes
same,dose proportionality of changes in AUC and Cmax at steady state,[7]; varying doses of dextromethorphan (30 to 60 mg),greater than dose-proportional changes
same,solubility in water,[1],sparingly soluble in water
same,increase of exposure in moderate renal impairment vs matched controls with normal renal function,[3]; [12],approximately 2 fold
same,reduction of clearance in moderate renal impairment vs matched controls,[3]; [12],50%
same,increase in AUC0-12 in moderate renal impairment,[3]; [13],2.21 fold
same,increase in Cmax in moderate renal impairment,[3]; [13],2.10 fold
same,AUC0-12 and Cmax in moderate hepatic impairment compared with healthy patients,[4],not significantly different
same,AUC Change Relative to Reference (90% CI); mean ratio of AUC0-12,[4],1.17
same,Cmax Change Relative to Reference (90% CI); mean ratio of Cmax,[4],1.21
same,AUC Change Relative to Reference (90% CI); mean ratio of AUC0-12,[4]; listed as DM,"1.17 (0.85, 1.61)"
same,Cmax Change Relative to Reference (90% CI); mean ratio of Cmax,[4]; listed as DM,"1.21 (0.90, 1.62)"
same,increase of AUC0-12 with concomitant paroxetine,[8]; [14],2.69 fold
same,increase of Cmax with concomitant paroxetine,[8]; [14],2.38 fold
same,increase of overall exposure by paroxetine,"[8]; co-administration of paroxetine and the subject combination, 29 healthy volunteers",2.5 fold
same,plasma concentrations on concomitant use of the subject combination with strong CYP2D6 inhibitor,[8]; in vivo,increases plasma concentrations of dextromethorphan
"CN[C@]1(c2ccccc2Cl)CCCCC1=O [esketamine, Esketamine]",Incidence of Sedation (MOAA/S score <5),"[9]; fixed-dose study, patients <65 years with treatment-resistant depression, 56 mg + oral AD, N = 114",50%
same,Incidence of Sedation (MOAA/S score <5),"[9]; fixed-dose study, patients <65 years with treatment-resistant depression, 84 mg + oral AD, N = 114",61%
same,Incidence of Sedation (MOAA/S score <5),[9]; [15],49%
same,Incidence of Dissociation (CADSS total score >4 and change >0),"[10]; fixed-dose study, patients <65 years with treatment-resistant depression, 56 mg + oral AD, N = 113",61%
same,Incidence of Dissociation (CADSS total score >4 and change >0),"[10]; fixed-dose study, patients <65 years with treatment-resistant depression, 84 mg + oral AD, N = 116",69%
same,Incidence of Dissociation (CADSS total score >4 and change >0),[10]; [15],75%

# Source: patent US12146889B1, “Compounds and combinations thereof for treating neurological and psychiatric conditions” (priority 2022, dated 2024)
